The NIST ThermoML archive (doi:10.1016/j.jct.2013.05.022)
Numbers after ± are expanded uncertainties.

Experiment: Boiling temperature at pressure P
Details: Liquid, Ebulliometric method (Recirculating still)

Boiling temperature at pressure P (13.33 kPa) [°C] | Boiling temperature at pressure P (20 kPa) [°C] | Boiling temperature at pressure P (26.66 kPa) [°C] | Boiling temperature at pressure P (33.33 kPa) [°C] | Boiling temperature at pressure P (40 kPa) [°C] | Boiling temperature at pressure P (53.33 kPa) [°C] | Boiling temperature at pressure P (66.66 kPa) [°C] | Boiling temperature at pressure P (79.99 kPa) [°C] | Boiling temperature at pressure P (93.33 kPa) [°C] | Boiling temperature at pressure P (98.12 kPa) [°C] | Boiling temperature at pressure P (101.33 kPa) [°C] | SMILES
133.2 ± 0.9 | 143.7 ± 0.9 | 152.1 ± 0.9 | 159 ± 0.8 | 164.7 ± 0.8 | 174.1 ± 0.8 | 182 ± 0.8 | 188.5 ± 0.8 | – | – | – | C=CC(C)(O)CCC=C(C)C (centres undefined) [3,7-dimethyl-1,6-octadien-3-ol]
35.7 ± 0.9 | 43.1 ± 0.8 | 48.5 ± 0.8 | 53 ± 0.8 | 57 ± 0.8 | 63.1 ± 0.8 | 68.2 ± 0.8 | 72.5 ± 0.8 | 76.2 ± 0.8 | 77.7 ± 0.8 | 78.2 ± 0.8 | CCO [ethanol]
